Reference: patent publication US20250388565A1, “ESTROGEN RECEPTOR ALPHA DEGRADERS AND METHODS OF USE THEREOF” (Relay Therapeutics, Inc., priority 2022, published 2025)

Biological target: T1, ERα protein (HiBiT-tagged) in ESR1_HiBiT KI MCF7 cells (Homo sapiens, UniProt P03372)
T1 sequence (P03372 1-595): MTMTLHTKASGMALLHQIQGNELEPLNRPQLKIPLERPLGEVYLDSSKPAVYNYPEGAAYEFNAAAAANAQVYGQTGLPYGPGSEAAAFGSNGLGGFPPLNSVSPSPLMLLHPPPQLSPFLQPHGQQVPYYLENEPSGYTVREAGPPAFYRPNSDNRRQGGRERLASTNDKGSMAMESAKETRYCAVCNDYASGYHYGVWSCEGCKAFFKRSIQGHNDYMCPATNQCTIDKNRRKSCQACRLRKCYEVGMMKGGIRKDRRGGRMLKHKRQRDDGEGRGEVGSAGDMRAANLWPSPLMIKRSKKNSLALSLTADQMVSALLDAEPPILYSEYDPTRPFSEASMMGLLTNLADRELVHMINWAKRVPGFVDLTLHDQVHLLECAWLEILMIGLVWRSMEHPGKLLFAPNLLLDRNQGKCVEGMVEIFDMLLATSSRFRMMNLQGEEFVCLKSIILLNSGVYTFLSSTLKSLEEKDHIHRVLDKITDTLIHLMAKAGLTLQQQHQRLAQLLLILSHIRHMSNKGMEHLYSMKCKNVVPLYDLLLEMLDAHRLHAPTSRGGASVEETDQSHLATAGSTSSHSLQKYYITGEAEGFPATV
Experiment: Nano Glo HiBiT Lytic Degradation Assay
Type: cell-based
Details: 6 hours with compound, 14-point dose response 1:3, bell-shape curve fit, half-maximal effect of first Hill model, read-out: MCF7 ESR1 HiBiT - (DC50)
Summary of the method: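 Lytic Nano-Glo HiBiT luminescence quantified ERα remaining after a 6 h, 37° C compound exposure of MCF7 cells carrying endogenous HiBiT-tagged ESR1. Dosing used 14 threefold dilutions from a 10 mM DMSO stock (0.1% DMSO final), run in duplicate. Signals were corrected for cell-free background and expressed relative to DMSO, and DC50 came from a bell-shaped curve fit (first Hill model half-maximum).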

Q: With `O=C1CC[C@H](N2Cc3cc(N4CCN(CC5CCN(c6ccc([C@H]7c8ccc(O)cc8CC[C@H]7C7CCC(F)(F)CC7)cc6)CC5)CC4)ccc3C2=O)C(=O)N1` (single isomer, unassigned) [Compound I-55] as the compound, how does the DC50 read?
A: 0.41 nM

Q: Which DC50 does the source give for `Cn1nc(N2CCC(=O)NC2=O)c2ccc(N3CCN(CC4CCN(c5ccc([C@@H]6c7ccc(O)cc7C(F)(F)C[C@@H]6c6ccccc6)cc5)CC4)CC3)cc21` [Compound I-300, 1-(6-(4-((1-(4-((1R,2S)-4,4-difluoro-6-hydroxy-2-phenyl-1,2,3,4-tetrahydronaphthalen-1-yl)phenyl)piperidin-4-yl)methyl)piperazin-1-yl)-1-methyl-1H-indazol-3-yl)dihydropyrimidine-2,4 (1H,3H)-dione] here?
A: 3300 nM

Q: Which DC50 does the source give for `O=C1CC[C@H](c2ccc(N3CCC4(CCN(CC5CCN(c6ccc([C@@H]7c8ccc(O)cc8CO[C@@H]7c7ccccc7)cc6)CC5)C4)CC3)cc2)C(=O)N1` (single isomer, unassigned) [Compound I-389] here?
A: 0.28 nM

Q: How did the DC50 turn out when `C[C@@H](C1CCN(c2ccc([C@@H]3c4ccc(O)cc4CC[C@@H]3c3ccccc3)cc2)CC1)N1CCN(c2ccc3c(c2)CN(C2CCC(=O)NC2=O)C3=O)CC1` (single isomer, unassigned) [II-70] was run?
A: 5 nM

Q: For `Cc1cccc([C@H]2CCc3cc(O)ccc3[C@H]2c2ccc(N3CCC(CN4CCN(c5ccc6c(c5)CN([C@H]5CCC(=O)NC5=O)C6=O)CC4)CC3)cc2)c1` (single isomer, unassigned) [II-28], which DC50 is on record?
A: 20 nM

Q: Which DC50 does the source give for `C[C@@H]1Cc2cc(O)ccc2[C@H](c2ccc(N3CCC(CN4CCN(c5ccc6c(c5)CN([C@H]5CCC(=O)NC5=O)C6=O)CC4)CC3)cc2)[C@@H]1c1ccccc1` [Compound I-333, (S)-3-(5-(4-((1-(4-((1S,2R,3R)-6-hydroxy-3-methyl-2-phenyl-1,2,3,4-tetrahydronaphthalen-1-yl)phenyl)piperidin-4-yl)methyl)piperazin-1-yl)-1-oxoisoindolin-2-yl)piperidine-2,6-dione] here?
A: 21 nM

Q: With `Cn1c(=O)n([C@@H]2CCC(=O)NC2=O)c2ccc(N3CCN(CC4CCN(c5ccc([C@@H]6c7ccc(O)cc7CO[C@@H]6c6ccccc6)cc5)CC4)CC3)cc21` (single isomer, unassigned) [Compound I-388] as the compound, how does the DC50 read?
A: 40 nM

Q: For `Cc1cc(F)cc([C@H]2OCc3cc(O)ccc3[C@H]2c2ccc(N3CCC(CN4CCN(c5ccc6c(c5)CN([C@H]5CCC(=O)NC5=O)C6=O)CC4)CC3)cc2)c1` [Compound I-377, (S)-3-(5-(4-((1-(4-((3S,4R)-3-(3-fluoro-5-methylphenyl)-7-hydroxyisochroman-4-yl)phenyl)piperidin-4-yl)methyl)piperazin-1-yl)-1-oxoisoindolin-2-yl)piperidine-2,6-dione], which DC50 is on record?
A: 0.62 nM

Q: With `O=C1CCC(N2Cc3cc(N4CCN(CC5CCN(c6ccc([C@@H]7c8ccc(O)cc8CC[C@@H]7c7cccc8c7CC8)cc6)CC5)CC4)ccc3C2=O)C(=O)N1` (single isomer, unassigned) [Compound I-100] as the compound, how does the DC50 read?
A: 0.33 nM

Q: How did the DC50 turn out when `O=C1CC[C@H](N2Cc3cc(N4CCN(CC5CCN(c6ccc([C@H]7CCCc8cc(O)ccc87)cc6)CC5)CC4)ccc3C2=O)C(=O)N1` (single isomer, unassigned) [Compound I-102] was run?
A: ≥ 10000 nM
